Reference: US20130252983A1, “ACTIVATING PHOSPHORYLATION SITE ON GLUTAMINASE C” (CORNELL UNIVERSITY, priority 2010, published 2013)
“Also recorded” adds a separate entry of the source.

Assays:
[1] = target: T1, GA activity of NIH 3T3 cells stably expressing Dbl or Cdc42(F28L) (Mus musculus, UniProt D3Z7P3); assay: GA activity in mitochondrial fractions of treated transformed NIH 3T3 cells; assay type: cell-based
T1 construct: endogenous in cells; host or cells: NIH 3T3 cells stably expressing Dbl or Cdc42(F28L); mitochondrial fraction
T1 sequence (D3Z7P3 55-603 isoform D3Z7P3-2): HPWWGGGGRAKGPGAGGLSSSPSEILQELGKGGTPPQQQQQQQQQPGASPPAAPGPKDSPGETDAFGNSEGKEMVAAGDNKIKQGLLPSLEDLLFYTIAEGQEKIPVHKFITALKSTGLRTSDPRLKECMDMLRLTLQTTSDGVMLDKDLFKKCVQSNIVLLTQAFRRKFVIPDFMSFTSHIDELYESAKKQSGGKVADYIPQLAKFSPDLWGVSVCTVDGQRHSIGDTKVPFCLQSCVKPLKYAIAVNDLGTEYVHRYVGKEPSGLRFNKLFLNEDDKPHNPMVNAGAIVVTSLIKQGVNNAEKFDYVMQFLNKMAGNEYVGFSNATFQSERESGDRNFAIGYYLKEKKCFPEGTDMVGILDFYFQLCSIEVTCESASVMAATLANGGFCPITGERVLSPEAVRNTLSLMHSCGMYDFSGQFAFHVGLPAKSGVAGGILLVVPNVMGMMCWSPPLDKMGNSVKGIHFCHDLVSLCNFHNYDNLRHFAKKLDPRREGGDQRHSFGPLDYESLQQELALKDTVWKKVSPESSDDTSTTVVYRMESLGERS
Experimental: (§1) 100%=620 moles of glutamine hydrolyzed per minute per mole of enzyme. Data represent the average of 3 experiments (±s.d.). […] Following precipitation of the beads and re-suspension, the samples were analyzed by Western blotting with anti-V5 antibody. […] Data represent the average of 3 experiments (±s.d.). […] Data represent the average of 3 experiments (±s.d.). […] Data represent the average of 3 experiments (±s.d.). FIG. 3E NIH 3T3 cells transiently expressing Dbl were assayed for focus formation in the presence of 10 μM 968 alone or together with 7 mM dimethyl α-ketoglutarate. […] 100%=680 nM glutamine hydrolyzed per minute per 10^5 cells. Data are the average of 3 experiments (±s.d.). […] 100%=750 nM glutamine hydrolyzed per minute per 10^5 cells. Data represent the average of 3 experiments (±s.d.).
(§2) FIGS. 4A-E illustrate the role of glutaminase C activity in cellular transformation. […] Data represent the average of 3 experiments (±s.d.). […] Data represent the average of 3 experiments (±s.d.). […] 100% represents the activity measured in untreated Dbl-transformed cells. The data represent the average of 2 experiments. […] 100% represents the activity measured in untreated SKBR3 cells. The data represent the average of 2 experiments. […] Data represent the average of 3 experiments (±s.d.).
FIGS. 11A-E illustrate the effects of different treatments on GA activity. […] The addition of Pi stimulated the GA activity in control 3T3 cells, Dbl-expressing cells, and Cdc42(F28L)-expressing cells by ˜6-fold, 2-fold, and 3-fold, respectively. 100% represents the Pi-stimulated activity measured for Dbl-transformed cells that were not treated with 968. Data is the average of 3 experiments (±s.d.). […] The addition of Pi stimulated the GA activity of HMECs, MDA-MB231 cells, and SKBR3 cells by ˜5-fold, 2-fold, and 1.4-fold, respectively. 100% represents the Pi-stimulated activity for SKBR3 cells that were not treated with 968. Data are the average of 3 experiments (±s.d.). […] Mitochondrial fractions were prepared from equal numbers of cells and assayed for GA activity in the presence or absence of 133 mM Pi. The data are plotted as the percentage of GA activity measured for untreated SKBR3 cells and represent the average of 2 experiments. […] 100% represents the Pi-stimulated activity measured for untreated Dbl-transformed cells. The data represent the average of 2 experiments. […] 100% represents the Pi-stimulated activity for untreated SKBR3 cells. The data represent the average of 2 experiments.
Dbl expressing NIH 3T3 cells were treated for 48 hours in the presence or absence of 968 (10 μM), Bay 11-7082 (2 μM) or Rapamycin (100 nM). Mitochondria were then isolated from the treated cells and assayed for glutaminase activity in the absence or presence of phosphate.
Mitochondrial preparations were obtained using the mitochondria isolation kit from QIAGEN (Cat #37612). A suspension containing 2×10^7 cells was transferred into a 50 ml conical tube and centrifuged at 500×g for 10 minutes at 4° C. The pellets were resuspended in 2 ml of ice-cold lysis buffer (supplied by QIAGEN) and incubated for 10 minutes at 4° C. using an end-over-end shaker. The lysates were centrifuged at 1000×g for 10 minutes at 4° C., and the pellets were resuspended in a buffer supplied by the manufacturer and disrupted completely by using a blunt-ended, 23-gauge needle and a syringe, followed by centrifugation at 6000×g for 20 minutes at 4° C. […]

[2] = system: GA activity of SKBR3 cells; assay: GA activity in mitochondrial fractions of treated SKBR3 cells; assay type: cell-based, human; conditions: 2 μM
Experimental: as §1, §2
FIGS. 11A-E illustrate the effects of different treatments on GA activity. […] The addition of Pi stimulated the GA activity in control 3T3 cells, Dbl-expressing cells, and Cdc42(F28L)-expressing cells by ˜6-fold, 2-fold, and 3-fold, respectively. 100% represents the Pi-stimulated activity measured for Dbl-transformed cells that were not treated with 968. Data is the average of 3 experiments (±s.d.). […] The addition of Pi stimulated the GA activity of HMECs, MDA-MB231 cells, and SKBR3 cells by ˜5-fold, 2-fold, and 1.4-fold, respectively. […] The data are plotted as the percentage of GA activity measured for untreated SKBR3 cells and represent the average of 2 experiments. […] 100% represents the Pi-stimulated activity measured for untreated Dbl-transformed cells. […]

[3] = target: T2, GAC phosphorylation (Mus musculus, UniProt D3Z7P3); assay: 2-D gel analysis of V5-GAC phosphorylation states from treated Dbl cells; assay type: cell-based; conditions: 48 hours
T2 construct: expressed in transfected cells; host or cells: NIH 3T3 cells (stably expressing Dbl, or parental), transient transfection
T2 sequence (D3Z7P3 55-603 isoform D3Z7P3-2 limits assumed): T1 sequence (D3Z7P3 55-603 isoform D3Z7P3-2)
Experimental: NIH 3T3 cells stably expressing the Dbl oncogene, were transiently transfected with DNA encoding a VS-tagged GAC, and then one sample was treated with 968 (10 μM) for 48 hours. The cells were then harvested and the ectopically expressed GAC was isolated by immunoprecipitation via the V5 tag. The samples were then subjected to 2-D gel analysis to separate the V5-GAC by charge and size, and the V5-tagged GAC was visualized by Western blotting using an anti-V5 antibody.
GAC runs distinctly on a 2D gel depending whether it is expressed in normal (untransformed) NIH 3T3 cells or in NIH 3T3 cells which are transformed by the Dbl oncogene. Specifically, there is one major species of GAC present in NIH 3T3 cells whereas in Dbl cells, two additional species of GAC appear which migrate with a more negative charge but at the same molecular mass as the original species (FIG. 21, first and second panels). […] Additionally, it has been shown that small molecules of the 968 family which are able to inhibit GAC in vivo do so by blocking the ability of GAC to become phosphorylated. Thus, it was of great interest to identify the amino acid(s) on GAC whose phosphorylation is causal in the activation of this enzyme.

[4] = system: NIH 3T3 cells expressing oncogenic Dbl; assay: Dbl-induced cellular transformation (focus formation, growth in low serum, soft agar); assay type: cell-based, mouse; conditions: focus formation / growth in low serum
Experimental: FIGS. 1A-E illustrate that the small molecule 968 inhibits cellular transformation. […] Cells were fixed and stained with crystal violet for counting of foci. Right: 968 was serially diluted (10, 5, 2.5, and 1.25 μM) and evaluated for its ability to inhibit focus formation. […] After 6 days, the cells were counted. 100% represents the number of Dbl-transformed cells counted in the absence of 968 (27.5×10^4 cells). Data represent the average of 3 experiments (±s.d.). […] At the indicated times, the cells were counted. Data represent the average of 3 experiments (±s.d.).
FIGS. 2A-G illustrate effects of 968 on the transforming activity of constitutively active Rho GTPases and human breast cancer cells. […] Cells were scored after 14 days and plotted as the percentage of the total number of colonies greater than 50 μm in diameter. Data represent the average of 3 experiments (±s.d.). […] Data represent the average of 3 experiments (±s.d.). […] Data represent the average of 3 experiments (±s.d.). […] After 24 hours at 37° C., the migratory cells were fixed, stained with GIEMSA, and counted. Data represent the average of 3 experiments (±s.d.). […] Data represent the average of 3 experiments (±s.d.). […] Data represent the average of 3 experiments (±s.d.). […] Data represent the average of 3 experiments (±s.d.).
FIGS. 5A-C illustrate comparative abilities of 968 and other benzo[a]phenanthridinones to inhibit the transforming activity of oncogenic Dbl and H-Ras. […] Histograms show the relative levels of Dbl-induced focus formation for the different treatments, compared to Dbl-induced focus formation measured in the presence of DMSO (i.e. solvent control). Data represent the average of 3 experiments (mean±s.d.). […] Histograms show the relative levels of Ras(G12V)-induced focus formation measured for the different treatments, compared to Ras(G12V)-induced focus formation measured in the presence of DMSO (solvent control). Data represent the average of 3 experiments (mean±s.d.). FIG. 5C NIH 3T3 cells stably expressing H-Ras(G12V) that were cultured in DMEM supplemented with 1% calf serum, with the indicated amounts of 968. After 6 days, cells are trypsinized and counted. 100% represents the number of cells counted in the absence of 968, i.e. 26×10^4 cells. Data represent the average of 3 experiments (mean±s.d.).

[5] = target: T3, mouse GAC (E. coli-expressed mouse ortholog of human GAC) (Mus musculus, UniProt D3Z7P3); assay: Recombinant glutaminase activity assay; assay type: biochemical
T3 construct: A plasmid encoding mouse GAC (residues 128-603) was cloned into the pET28a vector; His (N, cleaved yes); made in house; host or cells: E. coli (pET28a)
T3 sequence (D3Z7P3 128-603 isoform D3Z7P3-2): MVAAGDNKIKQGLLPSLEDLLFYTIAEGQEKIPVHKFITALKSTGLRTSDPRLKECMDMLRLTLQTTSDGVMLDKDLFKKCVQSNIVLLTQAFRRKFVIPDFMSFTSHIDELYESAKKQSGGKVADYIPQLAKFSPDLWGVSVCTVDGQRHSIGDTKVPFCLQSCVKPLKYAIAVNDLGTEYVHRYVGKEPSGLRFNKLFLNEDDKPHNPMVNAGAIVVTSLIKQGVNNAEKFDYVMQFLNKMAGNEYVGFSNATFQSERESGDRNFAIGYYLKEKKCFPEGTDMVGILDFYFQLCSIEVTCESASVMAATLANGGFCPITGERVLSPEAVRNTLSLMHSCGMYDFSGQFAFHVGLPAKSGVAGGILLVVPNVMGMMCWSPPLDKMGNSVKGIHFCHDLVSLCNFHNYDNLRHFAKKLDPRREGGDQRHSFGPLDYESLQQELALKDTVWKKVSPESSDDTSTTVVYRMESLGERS
Experimental: as §1
The activity of the E. coli-expressed recombinant mouse ortholog of human GAC were assayed in the presence of 0 ([…]), 10 (∇) or 20 (▪) μM 968 and inorganic phosphate in the form of dipotassium hydrogen phosphate. […] The data are plotted as GA activity as function of varying concentrations of glutamine or inorganic phosphate. The data are the average of 3 experiments and are plotted as mean±SEM.
Glutaminase activity assays were performed on recombinant enzyme as previously described (Kenny et al., “Bacterial Expression, Purification and Characterization of Rat Kidney-Type Mitochondrial Glutaminase,” Protein Expr. Purif. 31:140-148 (2003), which is hereby incorporated by reference in its entirety). A plasmid encoding mouse GAC (residues 128-603) was cloned into the pET28a vector and the protein was expressed with an N-terminal histidine (His)-tag. The tag was cleaved using thrombin and the protein was further purified by anion-exchange and gel-filtration chromatography. […] The reaction mixture was incubated at room temperature for 45 minutes and the absorbance at 340 nm was recorded for each sample against a water blank. The absorbance of the sample with just the cocktail mixture was subtracted from each reading to calculate the activity of the enzyme.

Compound | mitochondrial glutaminase activity ([1]; Dbl expressing NIH 3T3 cells, 48 hours, Bay 11-7082 (2 μM), Rapamycin (100 nM)) | direct stimulation of the enzyme by phosphate (Pi-stimulated GA activity) ([1]; Dbl-transformed cells, 2 μM) | basal (phosphate-independent) GA activity ([1]; Dbl-transformed cells, 2 μM, 2 days) | basal (phosphate-independent) GA activity [2] | direct stimulation of the enzyme by phosphate (Pi-stimulated GA activity) [2] | most negative migrating major species of GAC on 2D gel [3] | blocking of Dbl-induced transformation [4] | inhibition of enzymatic activity of purified mouse GAC [5]
CC(C)(C)c1ccc(S(=O)(=O)/C=C/C#N)cc1 [BAY 11-7082, E3((4-t-butylphenyl)-sulfonyl)-2-propenenitrile] | significant loss of glutaminase activity | little or no effect | significantly reduces their basal GA activity | significantly reduces their basal GA activity | little or no effect | loss of the most negative migrating major species of GAC |  | 
CC1(C)CC(=O)C2=C(C1)c1c(ccc3ccccc13)NC2c1cccc(Br)c1 (centres unmarked) [Compound 335] |  |  |  |  |  |  | little or no inhibition; also recorded: less effective at blocking Dbl-transformation | little ability to inhibit enzyme activity
